Where a SMILES comes first, the peptide text is derived from it. [ ]: non-standard residue; d: D form. Nle = CCCC[C@H](N)C(=O)O

For data set [1], the system named is A375 melanoma cells. Kind of data set: In vitro cytotoxicity, MTT colorimetric assay. Type of data set: cell-based, human. On the procedure: Cells were seeded in a 96-well plate and allowed to adhere overnight prior to adding the compound [29]. After 72 h of treatment in serum-free media, an MTT solution was added to each well to give a final concentration of 0.5 mg/mL and was incubated for 3 h. Formed crystals were solubilized, and their absorbance was measured at 595 nm.

Data set [2] relates to A375 human melanoma xenograft. Nature of the data set: In vivo xenograft melanoma mouse model. The conditions noted are these: KK-11 alone, in vivo studies. On the procedure: The study was carried out in compliance with the ARRIVE guidelines. All the animal studies and procedures were approved by the IACUC at Chapman University and conducted in compliance with the policies of Chapman University, in addition to those of federal, state, and local animal welfare authorities. Nude mice (NU/NU) were purchased from Charles River (Wilmington, MA, USA) and were housed and maintained in the Chapman University vivarium under pathogen-free conditions. A375 cells were suspended in cold Matrigel and injected subcutaneously into the flank of each mouse (1 × 10^6 cells per mouse) to establish tumors. The mice were treated by tail vein injections of 1× PBS, D-aa KK-11 alone (1.75 mg/kg), MAC-3-190 (5 mg/kg) alone, or D-aa KK-11 and MAC-3-190 co-treatment for 21 days. For the co-treatment, the solution of D-aa KK-11 and MAC-3-190 (1:11 molar ratio) was mixed gently and incubated at room temperature for 30 min before tail vein injection. The growth of the tumors was monitored three times a week and measured using digital Vernier calipers. The tumor volume (mm^3) was calculated as [Length × (Width^2)]/2 (in mm). The mice were sacrificed after 21 days per IACUC policy when the control group’s average tumor size reached 2000 mm^3. Tumor xenografts were removed and weighed.

Data set [3] in a line: Serum stability (human serum, RP-HPLC). Type of data set: in vitro ADME. The conditions noted are these: human serum incubation, 37 °C, data not shown. On the procedure: Human serum (250 µL) was thawed to room temperature and was added to DMEM media (650 µL). The mixture was kept in a 37 °C incubator to mimic human body temperature for 15 min. The peptide (100 µL, 1 mM) was dissolved (dispersed) in sterile water. The peptide solution was added to the pre-warmed human serum and DMEM mixture. The mixture was incubated at 37 °C. At different time points (0, 0.5, 1, 5, and 24 h) aliquots (100 µL) were removed and added to methanol (200 µL). Each time point sample was kept at 4 °C for 5 min, and then was centrifuged at 500× g for 15 min to separate serum proteins. The supernatant was injected into the RP-HPLC, and the major peaks were collected. The peak’s mass was determined using MALDI-TOF mass analysis. The serum stabilities of the D-aa KK-11 were determined by comparing the HPLC peaks (AUC) for the intact peptides at different time points.

Data set [4] has as its system A375 melanoma cells. Nature of the data set: Fluorescence microscopy of peptide uptake. The conditions noted are these: 0.5 µM, 30 min incubation, confocal microscopy, DAPI nuclei. Type of data set: cell-based, human. On the procedure: A375 melanoma cells were plated on coverslips and allowed to adhere overnight to 75% confluence, then incubated with 0.5 µM of FITC-KK-11 for 30 min at room temperature. After treatment, cells were washed three times in 1× PBS then fixed with 4% formaldehyde in 1× PBS for 15 min at room temperature. Fixed cells were then washed three times in 1× PBS for 5 min each, followed by curing in the dark with ProLong™ Gold Antifade Mountant with DAPI (P36935, Life Technologies Corporation, Eugene, OR, USA) for 1 h. Slides were visualized and recorded using the Nikon Eclipse Ti2-E confocal microscopy system (Nikon, Melville, NY, USA) using green and blue filters with 60× magnification.

Data set [5] relates to human melanoma cells (wm3211, Sk-mel-28, A375). Kind of data set: In vitro cellular uptake of FITC-labeled peptides by flow cytometry. Type of data set: cell-based. The conditions noted are these: FITC-labeled peptides 0.5 and 1 µM, A375, Sk-mel-28, wm3211, compared with FITC alone. How it is done:
The peptide (FITC-labeled) concentration was determined using a Shimadzu BioSpec-nano Micro-volume UV-Vis spectrophotometer (Shimadzu, Kyoto, Japan). Human melanoma cells (wm3211, Sk-mel-28, and A375) were incubated with FITC or FITC-labeled peptides at final concentrations of 0.5 µM and 1 µM for 2 h. After thorough washing with cold 1× PBS, the melanoma cells in a single cell suspension were collected for flow cytometry analysis (BD FACSVerse, BD Biosciences, Franklin Lakes, NJ, USA). The mean fluorescence density of 10,000 cells was analyzed and compared to that of control cells, as described previously.

The subject of data set [6] is athymic nude mice bearing human melanoma A375 tumors. Kind of data set: In vivo and ex vivo imaging (biodistribution) in mice bearing A375 tumors. The conditions noted are these: 8 µg per mouse. On the procedure: The study was carried out in compliance with Animal Research: Reporting of In Vivo Experiments (ARRIVE) guidelines. All the animal procedures were approved by the Institutional Animal Care and Use Committee (IACUC) at Chapman University and conducted in compliance with the policies of Chapman University, in addition to those of federal, state, and local animal welfare authorities. Male and female athymic nude mice (4–6 weeks old) were kept (5 in each cage) in a pathogen-free environment. Approximately 1 million human melanoma A375 cells (0.1 mL in normal saline), mixed with 0.1 mL cold Matrigel (#354248; Corning, Corning, NY, USA), were injected subcutaneously into the flank. The tumor size was measured with a caliper, and body weight was recorded once a week. When the tumor size reached approximately 800–1000 mm^3, as calculated using the following formula: [Length × (Width^2)]/2 (in mm), mice were processed for in vivo or ex vivo imaging.
For in vivo imaging, normal saline or VivoTag-KK-11 at a dose of 8 µg per mouse was injected into the mice via the tail vein (n = 2 for each time point). The animals were then scanned at different time intervals (0.5, 2, 6, and 24 h) using an IVIS Spectrum in vivo imaging system (PerkinElmer, Waltham, MA, USA). The mice were imaged for 0.5 s, 10 bin, level B at an emission wavelength of 688 ± 5 nm. Imaging was limited to no more than once a day and was conducted under continuously maintained isoflurane. Mice were maintained on alfalfa-free diets to minimize the background fluorescence. All the study animals survived through the in vivo imaging procedure.
For ex vivo imaging at defined time intervals (5, 15, 30 min, followed by 1, 1.5, 2, 3, 4, 6, 24, and 48 h) following fluorescence conjugate injection, animals were euthanized via carbon dioxide inhalation (n = 2 for each time point); tumor, liver, spleen, heart, lungs, brain, and kidneys were collected and briefly rinsed with saline. The organs were then imaged for 0.5 s, 10 bin, level B at an emission wavelength of 688 ± 5 nm using an IVIS Spectrum imaging system.

With `COc1cccc2c1C(=O)c1c(O)c3c(c(O)c1C2=O)C[C@@](O)(C(=O)CO)C[C@@H]3O[C@H]1C[C@H](N)[C@H](O)[C@H](C)O1` [DOX, doxorubicin, reference compound], the “Cell viability, % of control” value with A375 melanoma cells [1] (A375, DOX 0.5 µM alone, 72 h, serum-free media, MTT) was 62 % of control. For the same molecule, the “Cell viability (cells survived), % of control” value in the data set with A375 melanoma cells [1] (A375, DOX 1 µM alone, 72 h, MTT) is listed as 24%.

Turning to `CCCC[C@H](NC(=O)[C@H](Cc1c[nH]c2ccccc12)NC(=O)[C@@H]1CCCN1C(=O)[C@@H](N)C(C)C)C(=O)N[C@@H](CCC(=O)O)C(=O)N1CCC[C@H]1C(=O)N[C@@H](C)C(=O)N[C@@H](Cc1ccc(O)cc1)C(=O)N[C@@H](CCC(N)=O)C(=O)N[C@@H](CCCNC(=N)N)C(=O)N[C@@H](Cc1ccccc1)C(=O)N[C@@H](CC(C)C)C(N)=O` [KK-11] (H-VPW[Nle]EPAYQRFL-NH2), the “Cytotoxicity of peptide alone, in vivo” value in data set [2] is listed as “No cytotoxicity”. For the same molecule, the “Time to undetectable level of intact peptide in human serum” value in data set [3] is at most 30 min. In addition, the “Enhancement of MAC-3-190 cytotoxicity by KK-11 co-treatment” value with A375 melanoma cells [1] (A375, KK-11 1 µM with MAC-3-190 at 25% IC50, 50% IC50, IC50 and 2× IC50, 72 h, MTT, vs MAC-3-190 alone) is “did not observe any significant enhancement of cytotoxicity”. Also, the “Effect of sequential KK-11 then DOX treatment on DOX cytotoxicity” value with A375 melanoma cells [1] (A375, pretreated with KK-11 for 4 h, washed away, then DOX 72 h, MTT) was “failed to produce any changes on DOX cytotoxicity”. In the data set on A375 melanoma cells [1] (KK-11 alone, in vitro studies), the “Cytotoxicity of peptide alone, in vitro” value was “No cytotoxicity”.

Regarding “FITC-Aβ-VPWXEPAYQRFL [FITC-KK-11, KK-11 labeled with FITC at the N-terminus via β-alanine spacer]”, the “Cellular localisation of FITC-labeled peptide” value in the data set with A375 melanoma cells [4] is given as “present in the cytoplasm”. In data set [5], the “Uptake of FITC-labeled peptide by melanoma cells” value is “highest”.

As to “VivoTag-Aβ-VPWxEPAYQrFL [VivoTag-KK-11, VivoTag 680 XL labeled D-amino acid analogue of KK-11]”, the “Time post injection up to which fluorescence remained detectable in tumor xenografts, ex vivo imaging” value in data set [6] (IV tail vein, A375 xenograft nude mice, excised tumors, IVIS, n = 2 per time point) turned out to be 24 h. Also, the “Time after injection by which the peptide distributed to the tumor (and lungs, heart, spleen), ex vivo imaging” value in data set [6] (tail vein, A375 xenograft nude mice, IVIS, n = 2 per time point) is listed as at most 5 min. For the same molecule, the Brain penetration result in data set [6] (tail vein, ex vivo organ imaging) is reported as “no brain penetration was observed”. Also, the “Time after injection by which the peptide cleared from other organs” value in data set [6] (tail vein, ex vivo organ imaging (lungs, heart, spleen)) is given as at most 6 h. Also, the “Time after injection up to which the peptide was predominantly detected in kidneys” value in data set [6] (tail vein, ex vivo organ imaging, after 6 h) is reported as 48 h.

(Values after paper PMC9145755, “A Small Peptide Increases Drug Delivery in Human Melanoma Cells” (Pharmaceutics, 2022).)
